Literature values, collected in PubChem BioAssay AID1259409 (Chemical Carcinogenesis Research Information System (CCRIS), 2018).

Test system: rodent chemically induced tumor inhibition, incidence and multiplicity
Test: CCRIS tumor inhibitor studies

Question: Which results are given for Cc1cc(NC(=O)[C@H](CCCN=C(N)N)NC(=O)[C@H](CO)NC(=O)[C@H](Cc2ccccc2)NC(=O)OC(C)(C)C)cc2oc(=O)ccc12?
Answer: tumour outcome (control, treated, inhibition, significance) (Carcinogen: 1,2-DIMETHYLHYDRAZINE, 540-73-8, Dose [Inhibitor]: 0, 2429 UG/G IN DIET FOR 32 WK BEGINNING AT 24 D OF AGE (STUDY DURATION: 32 WK), Route [Inhibitor]: ORAL, Species: RAT, Strain/Sex: SPRAGUE-DAWLEY/MALE, Target Tissue: Type of Lesion: COLON: ADENOCARCINOMA, Dose [Carcinogen]: 20 MG/KG 1/WK FOR 15 WK BEGINNING ON D 37, Promoter: NONE USED): 19/22 (86%), 11/16 (69%), 20%, not calculated; tumour outcome (control, treated, inhibition, significance) (Carcinogen: 1,2-DIMETHYLHYDRAZINE, 540-73-8, Dose [Inhibitor]: 0, 2429 UG/G IN DIET FOR 32 WK BEGINNING AT 24 D OF AGE (STUDY DURATION: 32 WK), Route [Inhibitor]: ORAL, Species: RAT, Strain/Sex: SPRAGUE-DAWLEY/MALE, Target Tissue: Type of Lesion: SMALL INTESTINE: ADENOCARCINOMA, Dose [Carcinogen]: 20 MG/KG 1/WK FOR 15 WK BEGINNING ON D 37, Promoter: NONE USED): 18/22 (82%), 10/16 (63%), 23%, not calculated

Question: With C=C1CC[C@H]2C(C)(C)CCC[C@]2(C)[C@H]1CO as the compound, how does the “tumour outcome (control, treated, inhibition, significance)” value (Carcinogen: 7,12-DIMETHYLBENZ[A]ANTHRACENE [57-97-6], Dose [Inhibitor]: 85 NMOL/G IN 0.1 ML ACETONE 2X/WK FOR 20 WK 1 HR PRIOR TO EACH PROMOTER DOSE BEGINNING 1 WK POST LAST CARCINOGEN DOSE (S, Route [Inhibitor]: DERMAL, Species: MOUSE, Strain/Sex: ICR/FEMALE, Target Tissue: Type of Lesion: SKIN: PAPILLOMA, Dose [Carcinogen]: 390 NMOL IN 0.1 ML ACETONE ONCE (STUDY DURATION: 21 WK), Promoter: 12-O-TETRADECANOYL-13-ACETATE [16561-29-8]) read?
Answer: The value was 100%, 65%, 35%, not calculated.

Question: Which “tumour outcome (control, treated, inhibition, significance)” value (Carcinogen: 7,12-DIMETHYLBENZ[A]ANTHRACENE, 57-97-6, Dose [Inhibitor]: 0, 200 MG/KG BW/D FOR 3 WK BEGINNING 2 WK PRIOR TO CARCINOGEN DOSE (STUDY DURATION: 24 WK), Route [Inhibitor]: INTRAPERITONEAL, Species: RAT, Strain/Sex: SPRAGUE-DAWLEY/FEMALE, Target Tissue: Type of Lesion: MAMMARY GLAND: TUMOR, Dose [Carcinogen]: 33.3 MG/KG BW IN 0.25 ML CORN OIL ONCE AT 50 D OF AGE, Promoter: NONE USED) does the source give for CC(C)(C)c1cc(CO)cc(C(C)(C)C)c1O here?
Answer: Its value is 91%, 81%, 11%, not significant.
